Data published in patent US8642630B2, “Endogeneous repair factor production accelerators” (Ono Pharmaceutical Co., Ltd., priority 2002, dated 2014).

Columns and labels:
[1] = system: rat leg ischemia (arteriosclerosis obliterans (ASO)) model; experiment: Rat leg ischemia (ASO) model; usefulness of topical administration, Example 6; type: in vivo; conditions: 0.1 mg, intramuscular administration into the ischemic left femoral part
Protocol: (§1) Leg ischemia model was prepared by ligating rat left femoral artery. Blood flow in hind legs was measured by using Laser Doppler Imager (Moor Instruments) 1 week after the preparation, and the animals were divided into 4 groups (n=5) in such a manner that the average value of blood flow became almost uniform.
(§2) Starting on the next day of the grouping, 0.1 ml/site, 2 sites, of the agent to be tested was administered by intramuscular injection into ischemic regions of the left femoral adductor (polymer group, Compound 1 group, Compound 1 MS group) and normal region of the right shoulder upper arm (Compound 1 MS group), for once a week, 4 times in total as a solution to be tested. One week after completion of the final administration, blood flows of hind legs were measured by using Laser Doppler Imager (Moor Instruments), and blood flows of the treated leg (left leg) and untreated leg (right leg) were compared and examined.
(§3) • The polylactic acid-glycolic acid copolymer used in Preparation Example 2 was suspended in 0.2 w/v % Tween 80 solution (0.2 ml). In this connection, amount of the polylactic acid-glycolic acid copolymer is identical to the amount contained in Compound 1 MS (1 mg). Compound 1 (0.1 mg) Group: • Compound 1 (0.1 mg) was suspended in 0.2 w/v % Tween 80 solution (0.2 ml). […]

[2] = system: rat leg ischemia (arteriosclerosis obliterans (ASO)) model; experiment: Angiogenesis test using rat leg ischemia (ASO) model, Example 4; type: in vivo
Protocol: as §1, with “2 weeks” for “1 week”, “6” for “4”
as §2, with “into” for “into ischemic regions of”, “adductor,” for “adductor (polymer group, Compound 1 group, Compound 1 MS group) and normal region of the right shoulder upper arm (Compound 1 MS group),”
In this connection, construction of the solution to be tested is as follows. Solvent (control) group: 0.2 w/v % Tween 80 solution (0.2 ml).
as §3, with “contained in the Compound 1” for “contained in Compound 1”, “Compound 1 (1 mg) Group:” for “Compound 1 (0.1 mg) Group:”, “Compound 1 (1 mg) was” for “Compound 1 (0.1 mg) was”

Structure (SMILES): O=C(O)COc1cccc2c1CCC=C2CCO/N=C(\c1ccccc1)c1cccnc1 [Compound 1, (E)-[5-[2-[1-phenyl-1-(3-pyridyl)methylideneaminoxy]ethyl]-7,8-dihydronaphthalen-1-yloxy]acetic acid]
- increase in the blood flow, in words [1]: significant blood flow increasing action was not observed
- Treated leg/untreated leg blood flow ratio ([1]; once a week x4, 1 week after final administration): 60.5 ± 3.1%
- Treated leg/untreated leg blood flow ratio ([2]; 1 mg as Compound 1, i.m. left femoral adductor once a week x4, 1 week after final administration): 76.2 ± 2.8 %
- blood flow improving effect, in words ([2]; 1 mg, i.m. once a week x4, vs Control / polymer group): significant recovery of blood flow against Control
